Reference: patent US7348305B2, “Inhibitor of cardiac tachyarrhythmias” (Department of Veterans Affairs, Rehabilitation, priority 2003, dated 2008)
Entries after “also recorded” stand apart in the source; their conditions may differ.

How the values were obtained:
[1] = test system: ventricular tachyarrhythmias following LAD coronary artery ligation; test: Model 1: two-stage LAD coronary artery ligation, Holter EKG monitoring 2-24 hr (ventricular triplets, sustained VT/VF, death); format: in vivo, dog
Experimental: The two-stage ligation procedure results in a very low incidence of ventricular fibrillation (<5-10%) during the initial 6 hours following coronary artery occlusion (Harris et al., 1951). Almost all ventricular fibrillation occurs during the initial 30 minutes with a high proportion of successful defibrillation. Ambulatory EKG monitoring is performed over the 2-24 hr period following coronary artery ligation. During the 6-24 hr period, a 25-40% incidence of rapid monomorphic ventricular tachycardia (385±15/min) leading to ventricular fibrillation is observed at 13.3±0.8 hours post-LAD ligation (FIG. 1), with a mean duration of monomorphic ventricular tachycardia preceding ventricular fibrillation of 66±7 sec. When provocative ventricular pacing is performed at 24 hours, however, the reentrant substrate supporting sustained ventricular tachycardia is present in more than 80% of the surviving dogs with no difference in rate between spontaneous and pacing-induced sustained monomorphic ventricular tachycardias (FIG. 3).
In the 24-hr Infarct (Model 1) Studies, each control and etanercept pretreated animal was monitored for ventricular arrhythmias using a Holter 2-lead recording for the duration of time following LAD ligation. […] In the saline control group, 4 animals died at 11-24 hours post ligation. […]
Model 1: Electrophysiologic correlates of myocardial infarction over a 24-hr period. Eighteen 15-22 kg male mongrel dogs were anesthetized with IV sodium pentobarbital (30 mg/kg). A cuffed endotracheal tube was inserted and the animals were ventilated with room air using a volume-cycled respirator. […] The dogs were extubated and allowed to awaken in a temperature-controlled, humidified small animal post-operative recovery unit. They were given nalbuphine 0.2 mg/kg for post-operative analgesia. During the 2-24 hr period following LAD ligation, Holter monitoring was performed and the two-lead EKG was recorded on magnetic tape. Dogs were re-anesthetized with sodium pentobarbital at 24-hr. The thoracotomy was reopened and the heart was removed and perfused with ice-cold Tyrode's buffer via the left main coronary artery. The outer 0.5-1.5 mm EBZ tissue overlying the infarct was shaved and a longitudinal sample of tissue from the LAD region was stained with triphenyltetrazolium chloride (0.1%) to determine viability of the EBZ. Triphenyltetrazolium (TTZ) forms a brick-red precipitate in the presence of active intracellular dehydrogenases, delineating vital tissue. Non-viable tissues are not stained and remain a pale color. […] Tissue samples from the RS, the EBZ and the infarct tissue were dissected rapidly on an ice-cold surface, placed in freezer vials, and frozen in liquid nitrogen. These samples were then stored at −70° C. for later assay.
EKG Analysis: Full disclosure EKG records were obtained at 10 mm/sec for the entire 2-24 hour post-occlusion period. All measurements and calculations were made by direct visual observation and manual counting.
(§1) Anti-TNFα Treatment: A dosage of 2 mg/kg hTNFR:Fc (supplied as etanercept, Amgen, Inc, Thousand Oaks, Calif.) or saline were injected IV into a forepaw vein at 24-hr and again 1-hr prior to LAD ligation. […] This dosage was used after consultation with the pharmaceutical corporate pharmacology section and based on unpublished internal data that this dosage would provide maximal sequestration of tissue and circulating TNFα.

[2] = test system: myeloperoxidase (MPO) activity; test: Leukocyte infiltration by myeloperoxidase (MPO) activity, Model 2; format: in vivo, dog; conditions: etanercept pretreated
Experimental: Calculated Oxygen Requirement and Leukocyte Infiltration: The animal's oxygen requirement was estimated by calculation of the double product (heart rate x mean arterial pressure). The myocardial activity of myeloperoxidase (MPO), an enzyme occurring virtually exclusively in neutrophils, was determined by using a modification of the method of Bradley (Mullane et al., 1985). Change in absorbance was measured spectrophotometrically in the supernatants of homogenized myocardium. One unit of MPO is defined as the quantity of enzyme hydrolyzing […] of peroxide per minute at 25° C.

congestive heart failure = conditions: cited from earlier work
[3] = Side effects of IV injection in dogs; format: in vivo, dog; conditions: 2 mg/kg IV into a forepaw vein at 24-hr and 1-hr prior to LAD ligation
Experimental: as §1

[4] = test system: β-adrenergic receptor kinase (βARK); test: βARK immunoblot of EBZ tissue 24 hr after LAD ligation (Model 1); format: in vivo, dog; conditions: 24 hr after LAD ligation
Experimental: βARK immunoblots were used to estimate βARK expression (Yu et al., 2000).
Western Blot Analysis: Assessment of βARK content was conducted using standard SDS-PAGE and immunoblot techniques. Samples containing 100 μg of protein from myocardial extracts were electrophoresed using 10% SDS-PAGE and transferred to nitrocellulose membranes. The membrane was incubated with monoclonal anti-βARK (Upstate Biotechnology, Inc, Lake Placid, N.Y.), followed by exposure to peroxidase-linked anti-mouse IgG. Antibody binding was detected by a chemiluminescent method (ECL, Amersham Biosciences Corp, Piscataway, N.J.). Quantification of immunoreactive proteins was performed by densitometric scanning and with Image QuaNT software (Molecular Dynamics).
β-ARK, Proteasome and Ubiquitin Expression Assays: β-ARK, ubiquitinated β-ARK and proteasome in EBZ and RS tissues was determined by Western blot analysis. Samples were adjusted after protein concentration was assayed (BCA, Pierce Chemicals) to provide identical loads. 100 μg protein was combined with equal volume of SDS sample buffer, and electrophoresed on a 10% polyacrylamide gel. The blocked membranes were incubated with mouse anti β-ARK monoclonal antibody (Santa Cruz Biotechnology, Santa Cruz, Calif.) for 1-h at room temperature followed by anti-mouse IgG coupled to horseradish peroxidase and developed using an ECL western blotting kit (Amersham). The bands were scanned, stripped and reprobed with mouse anti-ubiquitin antibody (Santa Cruz Biotechnology, Santa Cruz, Calif.). The membrane was rescanned, stripped a second time and reprobed with rabbit anti-proteasome 20S C2 subunit polyclonal antibody (A.G. Scientific, Inc. CA). A separate control gel was included that was similarly treated, but reprobed with the identical Ab and band quality and density compared to the previous data obtained before stripping. Quantitation of immunoreactive bands was performed by densitometric scanning using ImageQuant software (Molecular Dynamics).

With etanercept the “fastest ventricular triplet rate observed per hour after LAD ligation (FIG. 18, FIG. 32)” value ([1]; 4 to 24 hr after LAD ligation) was “significant reduction”, the “mortality (dogs died of group)” value ([1]; 24 hr after LAD ligation, etanercept 2 mg/kg at -24 and -1 hr, bortezomib 0.0875 mg/kg at -1 and +6 hr, anakinra 10 mg/kg at -1 and +12 hr, control 4 of 10, preliminary) was 0 of 8 and the “frequency of very rapid (≧360 bpm) ventricular triplets” value ([1]; etanercept 2 mg/kg IV 24 and 1 hr before LAD ligation, 4-24 hr (2 to 24 hr) after ligation, n=8, saline 21±6/hr) was 6 ± 1 h⁻¹. For the same substance, the “average frequency of total rapid (≧300 bpm) ventricular triplets” value ([1]; etanercept 2 mg/kg IV 24 and 1 hr before LAD ligation, n=8, saline 152±32/hr) was 45 ± 8 h⁻¹, the “very rapid (≧360 bpm) ventricular triplets versus control (FIG. 31B)” value ([1]; etanercept 2 mg/kg, bortezomib 0.0875 mg/kg) was “significant descrease; also recorded: significant decrease” and the “rapid (>300 bpm) ventricular triplets per hour versus control (FIG. 31A)” value ([1]; etanercept 2 mg/kg, bortezomib 0.0875 mg/kg, anakinra 10 mg/kg) was “significant descrease”. The “idioventricular heart rate on EKG” value ([1]; etanercept-treated dogs versus saline, after LAD ligation (FIG. 16B)) was “slower idioventricular heart rate”, the “development of sustained ventricular tachycardia or fibrillation” value ([1]; etanercept-treated dogs, four saline-treated dogs developed it at 11-24 hours post ligation) was “no etanercept-treated dogs developed sustained ventricular tachycardia or fibrillation” and the “leukocyte infiltration, myeloperoxidase ratio of ischemic to normal tissue” value ([2]; Model 2, n=7, saline 11±2.6) was 1.8±0.2. The “decrease in leukocyte accumulation within ischemically injured myocardium” value ([2]; Model 2, versus saline) was 9 fold, the “benefit upon functional status or survival in congestive heart failure” value (congestive heart failure; human clinical trials (Anker et al., 2002)) was “no significant benefits” and the “safety of administration in patients with heart failure” value (congestive heart failure; human, in vivo) was “safe”. For the same substance, the “side effects of the injection” value [3] was “No side effects”, the “βARK in EBZ as percentage of unoperated control tissue” value ([4]; etanercept 2 mg/kg pretreated, immunoblot, n=5, saline 4.3%) was 33.8±7.2% and the “salvage of βARK in EBZ tissue compared to saline control” value ([4]; etanercept pretreated) was 8 fold.
